# Assay: Phase 1 first-in-human study, safety (TEAEs)
# Type: in vivo
# Text: Study Participants—Volunteers aged 18-58 years, with a body mass index (BMI) of 18-30 kg/m^2, body weight ≥50 kg, and who were considered healthy based on medical history, physical examination, clinical laboratory evaluation, and 12-lead electrocardiogram (ECG) were enrolled in this study. Females were required to be surgically sterile or postmenopausal. Key exclusion criteria were history of, or current, clinically significant medical illness and history of malignancy within 5 years.
# Study Design—This phase 1, randomized, double-blind, placebo-controlled, single-center study (NCT03607513; EudraCT 2018-000428-32) was conducted between July 2018 and August 2019 at the Janssen Clinical Pharmacology Unit in Merksem, Belgium.The study comprised two distinct parts; Part 1 examined SAD of compound of Formula (III) and Part 2 assessed MAD of compound of Formula (III).
# Safety, tolerability, PK, and BTKO were assessed for six doses of compound of Formula (III) oral solution (4, 12, 36, 100, 200, 400 mg) in participants under fasted conditions. The SAD part comprised 10 cohorts of 8 participants each (FIG. 1). In each cohort receiving compound of Formula (III) oral solution (Cohorts 1-9), 6 participants were randomized to receive compound of Formula (III) and 2 to receive placebo. All participants in Cohort 10 received compound of Formula (III) as an oral capsule. All 10 cohorts included 2 sentinel participants who were dosed ˜24 hours prior to the rest of the cohort. In cohorts receiving compound of Formula (III) oral solution, 1 sentinel participant received compound of Formula (III) and the other received placebo.
# Six male escalating dose cohorts received a single oral dose of 4, 12, 36, 100, 200, 400 mg compound of Formula (III) or placebo solution under fasted conditions. Gender effects were assessed in 2 female cohorts whose participants received either a 36 or 100 mg dose of compound of Formula (III) or placebo as an oral solution under fasted conditions. Food effects were evaluated in a male cohort receiving compound of Formula (III) 100 mg or placebo as an oral solution after a high-fat breakfast.
# Safety, tolerability, and PK of a solid dose formulation of compound of Formula (III) were assessed in an additional male cohort (Cohort 10) that received 3×35 mg (105 mg) of compound of Formula (III) in the fasted state. Since all the participants received the same dose of compound of Formula (III), this cohort was not blinded.
# Safety, tolerability, PK, and BTKO following multiple compound of Formula (III) doses were evaluated in 3 dose escalation cohorts with a total of 18 participants (males: 9, females: 9) receiving active study drug. In each cohort, 3 males and 3 females were randomized to receive 36 mg once-daily (QD), 100 mg QD, or 200 mg QD compound of Formula (III) oral solution and 3 participants (males: 2; female: 1) to receive placebo. Two male participants in each cohort served as sentinel participants: one received compound of Formula (III) and other received placebo ˜48 hours prior to other participants in the cohort. All safety and tolerability data (through the follow-up visit), PK data (through at least 24 hours after last dose administration), and all available PD data were reviewed from each cohort before a decision was made to dose escalate.
# Safety—Safety evaluations were based upon the type, incidence, and severity of treatment-emergent adverse events (TEAEs) reported throughout the study, and concomitant medication reporting, clinical laboratory tests, physical examinations, vital sign measurements, and ECGs assessed at pre-defined time points. The TEAEs and serious TEAEs were coded using the Medical Dictionary for Regulatory Activities (MedDRA Version 21.0) and summarized by system-organ class (SOC) and preferred terms.
smiles,measurement,setting,value
"C=CC(=O)N[C@H]1CCC[C@H]1NC(=O)c1sc2nccc3c2c1NC(=O)N3c1cnc(CC(C)C)cc1C (atropisomer, axis not shown) [compound of Formula (III), N-((1R,2S)-2-Acrylamidocyclopentyl)-5-(S)-(6-isobutyl-4-methylpyridin-3-yl)-4-oxo-4,5-dihydro-3H-1-thia-3,5,8-triazaacenaphthylene-2-carboxamide]","Administration site irritation, n (%)","Part 1, 4 mg fasted",1
same,"Headache, n (%)","Part 1, 4 mg fasted",1
same,"Patients with ≥1 TEAEs, n (%)","Part 1, 4 mg fasted",2
same,"Administration site irritation, n (%)","Part 1, 12 mg fasted",0
same,"Headache, n (%)","Part 1, 12 mg fasted",2
same,"Patients with ≥1 TEAEs, n (%)","Part 1, 12 mg fasted",3
same,"Administration site irritation, n (%)","Part 1, 36 mg fasted",0
same,"Headache, n (%)","Part 1, 36 mg fasted",2
same,"Patients with ≥1 TEAEs, n (%)","Part 1, 36 mg fasted",4
same,"Administration site irritation, n (%)","Part 1, 100 mg fasted",0
same,"Headache, n (%)","Part 1, 100 mg fasted",0
same,"Patients with ≥1 TEAEs, n (%)","Part 1, 100 mg fasted",4
same,"Administration site irritation, n (%)","Part 1, 100 mg fed",0
same,"Headache, n (%)","Part 1, 100 mg fed",1
same,"Patients with ≥1 TEAEs, n (%)","Part 1, 100 mg fed",1
same,"Administration site irritation, n (%)","Part 1, 105 mg solid",0
same,"Headache, n (%)","Part 1, 105 mg solid",1
same,"Patients with ≥1 TEAEs, n (%)","Part 1, 105 mg solid",3
same,"Administration site irritation, n (%)","Part 1, 200 mg fasted",1
same,"Headache, n (%)","Part 1, 200 mg fasted",1
same,"Patients with ≥1 TEAEs, n (%)","Part 1, 200 mg fasted",4
same,"Administration site irritation, n (%)","Part 1, 400 mg fasted",0
same,"Headache, n (%)","Part 1, 400 mg fasted",0
same,"Patients with ≥1 TEAEs, n (%)","Part 1, 400 mg fasted",3
same,"headache, incidence","Part 1, all treated",13.3%
same,"nasal congestion, incidence","Part 1, all treated",5%
same,"Administration site irritation, n (%)","Part 1, total N = 60",2(3.3)
same,"Headache, n (%)","Part 1, total N = 60",8 (13.3)
same,"Abdominal discomfort, n (%)","Part 2, 36 mg",1 (16.7)
same,"Abdominal pain, n (%)","Part 2, 36 mg",0
same,"Abnormal dreams, n (%)","Part 2, 36 mg",0
same,"Administration site irritation, n (%)","Part 2, 36 mg",1 (16.7)
same,"Back pain, n (%)","Part 2, 36 mg",1 (16.7)
same,"Cough, n (%)","Part 2, 36 mg",0
same,"Dehydration, n (%)","Part 2, 36 mg",0
same,"Diarrhea, n (%)","Part 2, 36 mg",0
same,"Dizziness, n (%)","Part 2, 36 mg",0
same,"Dysgeusia, n (%)","Part 2, 36 mg",0
same,"Fatigue, n (%)","Part 2, 36 mg",0
same,"Flatulence, n (%)","Part 2, 36 mg",1 (16.7)
same,"Headache, n (%)","Part 2, 36 mg",0
same,"Hot flush, n (%)","Part 2, 36 mg",0
same,"Increased bronchial secretion, n (%)","Part 2, 36 mg",0
same,"Injection site hematoma, n (%)","Part 2, 36 mg",0
same,"Injection site reaction, n (%)","Part 2, 36 mg",1 (16.7)
same,"Lipase increased, n (%)","Part 2, 36 mg",0
same,"Myalgia, n (%)","Part 2, 36 mg",0
same,"Nasopharyngitis, n (%)","Part 2, 36 mg",0
same,"Nausea, n (%)","Part 2, 36 mg",0
same,"Oral dysaesthesia, n (%)","Part 2, 36 mg",0
same,"Oropharyngeal pain, n (%)","Part 2, 36 mg",0
same,"Paresthesia, n (%)","Part 2, 36 mg",2 (33.3)
same,"Patients with ≥1 TEAEs, n (%)","Part 2, 36 mg",4 (66.7)
same,"Regurgitation, n (%)","Part 2, 36 mg",1 (16.7)
same,"Skin irritation, n (%)","Part 2, 36 mg",0
same,"Skin reaction, n (%)","Part 2, 36 mg",1 (16.7)
same,"Somnolence, n (%)","Part 2, 36 mg",0
same,"Vertigo, n (%)","Part 2, 36 mg",0
same,"Vessel puncture site hematoma, n (%)","Part 2, 36 mg",0
same,"Vision blurred, n (%)","Part 2, 36 mg",0
same,"Abdominal discomfort, n (%)","Part 2, 100 mg",1 (16.7)
same,"Abdominal pain, n (%)","Part 2, 100 mg",0
same,"Abnormal dreams, n (%)","Part 2, 100 mg",0
same,"Administration site irritation, n (%)","Part 2, 100 mg",2 (33.3)
same,"Back pain, n (%)","Part 2, 100 mg",0
same,"Cough, n (%)","Part 2, 100 mg",0
same,"Dehydration, n (%)","Part 2, 100 mg",0
same,"Diarrhea, n (%)","Part 2, 100 mg",1 (16.7)
same,"Dizziness, n (%)","Part 2, 100 mg",0
same,"Dysgeusia, n (%)","Part 2, 100 mg",0
same,"Fatigue, n (%)","Part 2, 100 mg",0
same,"Flatulence, n (%)","Part 2, 100 mg",0
same,"Headache, n (%)","Part 2, 100 mg",0
same,"Hot flush, n (%)","Part 2, 100 mg",1 (16.7)
same,"Increased bronchial secretion, n (%)","Part 2, 100 mg",0
same,"Injection site hematoma, n (%)","Part 2, 100 mg",2 (33.3)
same,"Injection site reaction, n (%)","Part 2, 100 mg",1 (16.7)
same,"Lipase increased, n (%)","Part 2, 100 mg",0
same,"Myalgia, n (%)","Part 2, 100 mg",1 (16.7)

# Source: patent publication US12622910B2, “Inhibitors of Bruton's tyrosine kinase and methods of their use” (Janssen Pharmaceutica NV, priority 2021, dated 2026)
